The values below come from ChEMBL document CHEMBL4196030, “Enediynes bearing polyfluoroaryl sulfoxide as new antiproliferative agents with dual targeting of microtubules and DNA” (Eur J Med Chem, 2018).

The source made the active and inactive calls. The rule behind the calls is not given here.

Test [1] has as its system MIA PaCa-2. The test is described as follows: Antiproliferative activity against human MIAPaCa2 cells after 70 hrs by alamar blue assay. The note with it: MIA PaCa-2, 70 h. The class given is functional, cell-based. For orientation: The colour change of resazurin is a common sign of viable cells or microbes.
The test system of test [2] is MIA PaCa-2. Kind of test: Antiproliferative activity against human MIAPaCa2 cells preincubated for 4 hrs followed by 0.6 J/cm2 light irradiation for 10 mins and measured after 70 hrs by alamar blue assay. Type of test: functional, cell-based. The conditions noted are these: MIA PaCa-2, light or radiation study.
Test [3] can be described thus: Selectivity ratio of IC50 for antiproliferative activity against human MIAPaCa2 cells under dark condition to IC50 for antiproliferative activity against human MIAPaCa2 cells under 0.6 J/cm2 light irradiation. Type of test: functional, MIA PaCa-2.
For another test, the system named is A498. The test is described as follows: Disruption of microtubule network in human A498 cells at 5 times antiproliferative IC50 after 1 to 12 hrs by immunofluorescence assay. The class given is cell-based.
Another test relates to A549. The test is described as follows: Disruption of microtubule network in human A549 cells at 5 times antiproliferative IC50 after 1 to 12 hrs by immunofluorescence assay. Type of test: cell-based.
The species named for another test is Homo sapiens. Kind of test: Disruption of microtubule network in human MIAPaCa2 cells at 5 times antiproliferative IC50 after 1 to 12 hrs by immunofluorescence assay. Type of test: cell-based.

By IC50 is commonly meant the point on the concentration scale where inhibition reaches its midpoint. Read a low IC50 as greater potency in that assay. On to `CCCCC(=O)OCC#Cc1ncccc1C#CC[S+]([O-])c1c(F)c(F)c(F)c(F)c1F` (stereo not drawn), for which the concentration for half-maximal inhibition (IC50) in the test on MIA PaCa-2 [1] is 3 µM; in the test with MIA PaCa-2 [2] it was 0.5 µM. Also, in test [3], the “Ratio IC50” value amounted to 6.

`COc1cc2c(c(OC)c1OC)-c1ccc(OC)c(=O)cc1[C@@H](NC(C)=O)CC2`: in the test on A498, the outcome was Active.

For the compound `CCOC(=O)c1ccc(C#CCO)c(C#CC[S+]([O-])c2c(F)c(F)c(F)c(F)c2F)c1` (stereo not drawn), the 50% inhibitory concentration (IC50) in the test with MIA PaCa-2 [1] is 1.6 µM. In other words, the single-digit micromolar range.

For `[O-][S+](CC#Cc1ccccc1)c1c(F)c(F)c(F)c(F)c1F` (stereo not drawn), in the test with MIA PaCa-2 [1], half-maximal inhibition (IC50) was put at 7.8 µM. Compared with the last compound, the IC50 is about 4.9-fold higher.

As for `[N-]=[N+]=NCC#Cc1ccccc1C#CC[S+]([O-])c1c(F)c(F)c(F)c(F)c1F` (stereo not drawn), the concentration for half-maximal inhibition (IC50) in the test on MIA PaCa-2 [1] was 2.4 µM. Against the preceding compound, the IC50 is about 3.2-fold lower.

On to `[O-][S+](CC#Cc1cc2ccccc2cc1C#CCO)c1c(F)c(F)c(F)c(F)c1F` (stereo not drawn), for which the half-inhibitory concentration (IC50) in the test on MIA PaCa-2 [1] is 4.7 µM. The result with A549 and in the test listed under Homo sapiens was Active.

Regarding `[O-][S+](CC#Cc1cccnc1C#CCOC1CCCCO1)c1c(F)c(F)c(F)c(F)c1F` (stereo not drawn), inhibition in the test with MIA PaCa-2 [1] was half-maximal at 1 µM (IC50).

Compound `[O-][S+](CC#Cc1ccccc1C#CCCCCO)c1c(F)c(F)c(F)c(F)c1F` (stereo not drawn) returned an IC50 in the test on MIA PaCa-2 [1] of more than 10 µM.

For `O=S(=O)(CC#Cc1ccccc1C#CCO)c1c(F)c(F)c(F)c(F)c1F`, the half-inhibitory concentration (IC50) in the test on MIA PaCa-2 [1] was 3.9 µM.
